Marks after values point to notes of the source that are not given here.
How the values were obtained:
[1] = multicell screening of anti-agglomerants (stirred cells cooled to 4° C., 100 bars); parameters: key to Tests multicell screening, Seawater 1.0% / Tests multicell screening, Seawater 1.5% / Tests multicell screening, Fresh water 1.5% / Tests multicell screening, Fresh water 2.5%: 0: the compound does not work as an anti-agglomerant; 1: the compound initially works as an anti-agglomerant, but not throughout the whole test; 2: the compound works as an anti-agglomerant throughout the whole test; conditions: for Tests multicell screening, Seawater 1.5% / Tests multicell screening, Fresh water 1.5%: 1.5% anti-agglomerant; for Tests multicell screening, Seawater 1.5% / Tests multicell screening, Seawater 1.0% / Tests multicell screening, Fresh water 1.5% / Tests multicell screening, Fresh water 2.5%: 100 bars, 4° C., Sleipner condensate; for effect as anti-agglomerant for gas hydrates in the screening test, in words: multicell screening test of Example 1; for Tests multicell screening, Seawater 1.0%: 1.0% anti-agglomerant; for Tests multicell screening, Fresh water 2.5%: 2.5% anti-agglomerant
From the text: (§1) The technique used for evaluating the anti-agglomerants is described in detail in “New Technique for Evaluating Antiagglomerate Gas-Hydrate Inhibitors in Oilfield Applications”, SPE 93075, 2005 SPE International Symposium on Oilfield Chemistry, Houston, Tex., Feb. 2-4.
(§2) The complete multicell system consists of a high-pressure vessel containing the multicell test unit, a cooling unit, a stirrer drive, a sensor interface unit, and a computer system. The high-pressure vessel is connected to two gas cylinders containing pressurized hydrocarbon gas (87.9% methane, 7.7% ethane, 3.1% propane, and 1.3% isobutane) and nitrogen. Thus, in an experimental run each test cell will be subjected to the same gas mixture, temperature, and pressure. Each cell has a magnetic bar stirrer and the rotation of the stirrer is monitored by the sensor and recorded. When gas hydrate crystals are formed in a cell, there will be a change in viscosity or flow behaviour and there will be a change in the lag of the stirrer bar. Each time the magnetic bar passes a certain point, an optical pulse is recorded. The lag is measured as the difference between the position of the lower drive magnets and the stirrer in the cell. When the viscosity gets too high, as is the case when larger aggregates of gas hydrates are formed, the magnetic stirrer will either stop completely, in which case the signal will be zero, or start “skipping”, which will create an unstable/random signal, and this will be shown in the recorded graph.
(§3) Each cell is also equipped with a temperature sensor.
The cells are loaded with 1 ml of water/inhibitor mixture and 2.5 ml of Sleipner condensate (=crude oil obtained from the Sleipner oilfield of Statoil). Nitrogen is first applied to expel most of the air, and then hydrocarbon gas is admitted until a constant pressure of 100 bars is reached.
During the whole test, the mixtures were continuously stirred at 120 rpm. The temperature was first lowered from about 20° C. to 4° C. in about 1.5 hours, then kept at 4° C. for about two hours, and finally reheated again to 20° C. in about 1.5 hours. When the stirrer works all the time, the compound is considered to work well as an anti-agglomerant, whereas if the stirrer bar stops, the compound is considered not to work as an anti-agglomerant during the prevailing conditions. The tests were performed both in seawater and in fresh water and at different concentrations of the anti-agglomerants.

[2] = multicell shut-in and restart test of anti-agglomerants; parameters: key: 0: The stirrer did not start at all until the temperature had been increased so much that the gas hydrate had melted; 1: The stirrer started but stopped again after a short period; 2: The stirrer started and kept on running continuously; conditions: restart after at least twelve hours at 4° C.; for Tests multicell shut-in, Fresh water (70 bar) 2.5% / Tests multicell shut-in, Seawater (70 bar) 2.5%: 2.5% anti-agglomerant; for Tests multicell shut-in, Fresh water (70 bar) 2.0%: 2.0% anti-agglomerant
From the text: as §1, §2, §3
The cells are loaded in the same way as above, but hydrocarbon gas is admitted until the constant stated pressure is reached.
In this experiment the test cells were stirred at 120 rpm for one hour at 20° C. and the stated pressure. The stirring was then stopped and the autoclave cooled to 4° C. in about 1.5 hours. The cells were then kept at 4° C. for a minimum of twelve hours before the driving magnets were restarted at 120 rpm. They were then kept running for about two hours at 4° C. before the cells were reheated to 20° C. in about 1.5 hours.
This is marked as 0 in the tables. • The stirrer started but stopped again after a short period. This is marked as 1 in the tables. • The stirrer started and kept on running continuously. This is marked as 2 in the tables.

[3] = seawater, 1.5% anti-agglomerant

Compound: CCCCCCCC/C=C\CCCCCCCCN(CCCNC(C)=O)C(C)=O [Compound 10, N-oleyl-trimethylene diamine diamidated with acetic anhydride]
- Tests multicell screening, Seawater 1.5% [1]: 2
- Tests multicell shut-in, Fresh water (70 bar) 2.5% [2]: 2
- Tests multicell shut-in, Seawater (70 bar) 1.5% [2, 3]: 0
- Tests multicell shut-in, Seawater (70 bar) 2.5% ([2]; seawater): 2

Compound: CCCCCCCCN(CCCNC(C)=O)C(C)=O [Compound 11, N-(n-octyl)-trimethylene diamine diamidated with acetic anhydride]
- Tests multicell screening, Seawater 1.5% [1]: 2

Compound: CCCCC(CC)CN(CCCNC(C)=O)C(C)=O (centres unmarked) [Compound 14, N-(2-ethylhexyl)-trimethylene diamine, diamidated with acetic anhydride]
- Tests multicell shut-in, Fresh water (70 bar) 2.5% [2]: 2
- Tests multicell shut-in, Seawater (70 bar) 1.5% [2, 3]: 0
- Tests multicell shut-in, Seawater (70 bar) 2.5% ([2]; seawater): 0

Compound: (Coco alkyl)amine + 2EO + 2PO [Compound 3]
- effect as anti-agglomerant for gas hydrates in the screening test, in words [1]: works excellently as an anti-agglomerant
- Tests multicell screening, Seawater 1.0% [1]: 2
- Tests multicell screening, Seawater 1.5% [1]: 2
- Tests multicell shut-in, Fresh water (70 bar) 2.0% [2]: 2
- Tests multicell shut-in, Seawater (70 bar) 1.5% [2, 3]: 0
- Tests multicell shut-in, Seawater (70 bar) 2.5% ([2]; seawater): 1

Compound: (Coco alkyl)amine + 2EO [B, reference compound]
- effect as anti-agglomerant for gas hydrates in the screening test, in words [1]: not effective
- Tests multicell screening, Seawater 1.0% [1]: 0
- Tests multicell screening, Seawater 1.5% [1]: 0

Compound: (Coco alkyl)amine + 4 EO [reference compound]
- effect as anti-agglomerant for gas hydrates in the screening test, in words [1]: not effective
- Tests multicell screening, Seawater 1.0% [1]: 0
- Tests multicell screening, Seawater 1.5% [1]: 0

Compound: Erucyl amine + 2EO + 2PO [Compound 2]
- Tests multicell screening, Fresh water 1.5% [1]: 2
- Tests multicell screening, Seawater 1.5% [1]: 2

Compound: Monoamide between oleic acid and aminoethyl ethanolamine + 1EO, diesterified with acetic anhydride [Compound 7]
- Tests multicell screening, Seawater 1.0% [1]: 2

Compound: Monoamide between oleic acid and aminoethyl ethanolamine, amidated with acetic anhydride [Compound 8]
- Tests multicell screening, Fresh water 1.5% [1]: 2
- Tests multicell screening, Seawater 1.0% [1]: 2
- Tests multicell screening, Seawater 1.5% [1]: 2

Compound: N,N-bis(3-aminopropyl)(tallow alkyl)amine, diamidated with acetic anhydride [Compound 9]
- Tests multicell screening, Seawater 1.0% [1]: 0
- Tests multicell screening, Seawater 1.5% [1]: 2

Compound: N-(2-ethylhexyl)-trimethylene diamine + 3PO [Compound 15]
- Tests multicell shut-in, Fresh water (70 bar) 2.5% [2]: 1
- Tests multicell shut-in, Seawater (70 bar) 2.5% ([2]; seawater): 2

Compound: N-(coco alkyl)-trimethylene diamine diamidated with acetic anhydride [Compound 12]
- Tests multicell screening, Seawater 1.5% [1]: 2

Compound: N-(n-octyl)-trimethylene diamine + 3PO [Compound 4]
- Tests multicell screening, Seawater 1.5% [1]: 2

Compound: N-(tallow alkyl)-N-methyl aminopropylamine monoamidated with acetic anhydride [Compound 13]
- Tests multicell screening, Seawater 1.5% [1]: 2

Compound: N-oleyl-trimethylene diamine + 3EO, triesterified with acetic anhydride [Compound 6]
- Tests multicell screening, Fresh water 2.5% [1]: 2
- Tests multicell screening, Seawater 1.5% [1]: 2
- Tests multicell shut-in, Fresh water (70 bar) 2.5% [2]: 2
- Tests multicell shut-in, Seawater (70 bar) 1.5% [2, 3]: 0
- Tests multicell shut-in, Seawater (70 bar) 2.5% ([2]; seawater): 1

Compound: Oleyl amine + 2EO + 2PO [Compound 1]
- Tests multicell screening, Seawater 1.5% [1]: 2
- Tests multicell shut-in, Fresh water (70 bar) 2.0% [2]: 1
- Tests multicell shut-in, Fresh water (70 bar) 2.5% [2]: 1
- Tests multicell shut-in, Seawater (70 bar) 2.5% ([2]; seawater): 1
- Tests multicell shut-in, Seawater 1.5%, measured at 100 bar ([2]; seawater, 100 bar, 1.5% anti-agglomerant): 2**

Compound: Oleyl amine + 2EO + 2PO, quaternized with CH3Cl [reference compound]
- Tests multicell screening, Fresh water 1.5% [1]: 0
- Tests multicell screening, Seawater 1.5% [1]: 2

Compound: Oleyl amine + 2EO [D, reference compound]
- Tests multicell screening, Seawater 1.0% [1]: 0

Compound: Oleyl amine + 2EO, diester with acetic acid [Compound 5]
- Tests multicell screening, Fresh water 1.5% [1]: 0
- Tests multicell screening, Fresh water 2.5% [1]: 0
- Tests multicell screening, Seawater 1.0% [1]: 0
- Tests multicell screening, Seawater 1.5% [1]: 2
